Laboratory results taken from ChEMBL document CHEMBL6096668, “Design and functional studies of xylene-based cyclic mimetics of SOCS1 protein” (Eur J Med Chem, 2025).
Numbered stars: 1 amine (or outer) side, 2 acyl side, 3 side chain; on linkers, the order of the positions; unused ones are H or OH. Bridge positions count the residues as written; N and C are the ends. Square brackets hold non-standard residues; d marks the D form. Peptide text beside a SMILES is read from it. * marks the point of attachment. 1Nal = N[C@@H](Cc1cccc2ccccc12)C(=O)O; TBMB = c1c(C[*:1])cc(C[*:3])cc1C[*:2]; Acm = CC(=O)NC*

Assays:
[1] = biological target: T1, Tyrosine-protein kinase JAK2 (Homo sapiens, UniProt O60674); assay: Binding affinity to his-tagged JAK2 (826 to 1132 residues) (unknown origin) assessed as dissociation constant incubated for 30 mins by MST analysis
[2] = biological target: T1, Tyrosine-protein kinase JAK2; assay: Inhibition of JAK2 (unknown origin) using srctide as substrate preincubated with compound for 1 hr followed by substrate addition and measured after 15 mins in presence of ATP by LC-MS analysis
[3] = Stability of the compound in fetal bovine serum measured after 30 h by RP-HPLC analysis; details: cattle

T1 sequence (O60674 whole entry, the tested form may be a part): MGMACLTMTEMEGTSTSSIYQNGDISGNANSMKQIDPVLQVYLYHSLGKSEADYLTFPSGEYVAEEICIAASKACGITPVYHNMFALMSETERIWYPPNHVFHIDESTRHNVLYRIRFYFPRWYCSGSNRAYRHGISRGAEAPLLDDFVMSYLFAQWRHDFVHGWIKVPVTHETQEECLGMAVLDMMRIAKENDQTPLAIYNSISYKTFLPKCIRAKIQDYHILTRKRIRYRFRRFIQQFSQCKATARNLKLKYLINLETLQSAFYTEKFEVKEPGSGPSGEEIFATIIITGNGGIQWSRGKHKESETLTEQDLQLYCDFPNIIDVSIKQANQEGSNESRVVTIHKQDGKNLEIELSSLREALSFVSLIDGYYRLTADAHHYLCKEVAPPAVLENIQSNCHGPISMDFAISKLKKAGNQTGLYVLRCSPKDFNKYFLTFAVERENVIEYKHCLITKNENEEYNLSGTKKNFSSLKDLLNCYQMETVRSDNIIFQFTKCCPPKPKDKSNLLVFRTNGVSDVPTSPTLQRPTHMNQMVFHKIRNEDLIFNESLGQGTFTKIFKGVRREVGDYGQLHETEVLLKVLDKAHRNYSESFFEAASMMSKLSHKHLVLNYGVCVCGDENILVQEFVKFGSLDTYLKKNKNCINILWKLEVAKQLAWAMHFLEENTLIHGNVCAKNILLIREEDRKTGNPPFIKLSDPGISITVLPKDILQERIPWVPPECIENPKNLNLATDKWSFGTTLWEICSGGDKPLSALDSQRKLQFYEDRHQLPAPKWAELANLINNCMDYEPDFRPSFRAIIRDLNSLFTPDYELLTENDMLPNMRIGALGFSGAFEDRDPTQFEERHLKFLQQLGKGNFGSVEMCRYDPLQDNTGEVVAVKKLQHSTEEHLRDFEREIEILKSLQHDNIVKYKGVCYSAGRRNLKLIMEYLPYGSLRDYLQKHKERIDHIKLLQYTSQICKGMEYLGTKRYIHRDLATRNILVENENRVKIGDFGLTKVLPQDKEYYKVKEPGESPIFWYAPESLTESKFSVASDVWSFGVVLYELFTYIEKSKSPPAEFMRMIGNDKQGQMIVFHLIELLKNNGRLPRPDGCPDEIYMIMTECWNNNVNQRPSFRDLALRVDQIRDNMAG

Row | SMILES | Kd [1] | IC50 [2] | Stability [3]
1 | CC(=O)NCSC[C@@H]1NC(=O)[C@H]([C@@H](C)O)NC(=O)[C@H](NC(C)=O)CSCc2cccc(c2)CSC[C@@H](C(=O)N[C@@H](Cc2cnc[nH]2)C(N)=O)NC(=O)[C@H](CCCNC(=N)N)NC(=O)[C@H](Cc2cccc3ccccc23)NC(=O)[C@H]([C@@H](C)O)NC(=O)[C@H](CCC(N)=O)NC(=O)[C@H](CCCNC(=N)N)NC1=O | 6.8 µM | 2.2 µM | 
2 | CC(=O)NCSC[C@@H]1NC(=O)[C@H]([C@@H](C)O)NC(=O)[C@@H](NC(C)=O)CSCc2cc3cc(c2)CSC[C@H](NC(=O)[C@H](CCCNC(=N)N)NC1=O)C(=O)N[C@@H]([C@@H](C)O)C(=O)N[C@@H](Cc1cccc2ccccc12)C(=O)N[C@@H](CCCNC(=N)N)C(=O)N[C@H](C(=O)N[C@@H](Cc1cnc[nH]1)C(N)=O)CSC3 (Ac-CTC(Acm)RCT[1Nal]RCH-NH2; linker 1-5-9 via TBMB) | 130 µM | 100 µM | 
3 | CC(=O)NCSC[C@@H]1NC(=O)[C@H]([C@@H](C)O)NC(=O)[C@@H](NC(C)=O)CC(=O)NCCCC[C@@H](C(=O)N[C@@H](Cc2cnc[nH]2)C(N)=O)NC(=O)[C@H](CCCNC(=N)N)NC(=O)[C@H](Cc2cccc3ccccc23)NC(=O)[C@H]([C@@H](C)O)NC(=O)[C@H](CCC(N)=O)NC(=O)[C@H](CCCNC(=N)N)NC1=O (Ac-DTC(Acm)RQT[1Nal]RKH-NH2; lactam 1-9) |  |  | Stable
4 | COc1cc(/C=C/C(=O)CC(=O)/C=C/c2ccc(O)c(OC)c2)ccc1O [CURCUMIN] | ~90 µM |  | 
